Test results reported in patent publication US20220227737A1, “NOVEL OXALYL PIPERAZINES ACTIVE AGAINST THE HEPATITIS B VIRUS (HBV)” (AiCuris GmbH & Co. KG, priority 2019, published 2022).

Legend:
[1] = tested on: HBV; assay: HBV replication assay: HBV DNA from the supernatants of HepAD38 cells; type: cell-based; conditions: Hepatitis B virus, 144 h, HBV DNA in supernatant at day 6, read-out: Cell Activity
Method: Determination of HBV DNA from the Supernatants of HepAD38 Cells
The anti-HBV activity was analysed in the stable transfected cell line HepAD38, which has been described to secrete high levels of HBV virion particles (Ladner et al., 1997). In brief, HepAD38 cells were cultured at 37° C. at 5% CO2 and 95% humidity in 200 μl maintenance medium, which was Dulbecco's modified Eagle's medium/Nutrient Mixture F-12 (Gibco, Karlsruhe), 10% fetal bovine serum (PAN Biotech Aidenbach) supplemented with 50 μg/ml penicillin/streptomycin (Gibco, Karlsruhe), 2 mM L-glutamine (PAN Biotech, Aidenbach), 400 μg/ml G418 (AppliChem, Darmstadt) and 0.3 μg/ml tetracycline. Cells were subcultured once a week in a 1:5 ratio, but were usually not passaged more than ten times. For the assay 60,000 cells were seeded in maintenance medium without any tetracycline into each well of a 96-well plate and treated with serial half-log dilutions of test compound. To minimize edge effects the outer 36 wells of the plate were not used but were filled with assay medium. On each assay plate six wells for the virus control (untreated HepAD38 cells) and six wells for the cell control (HepAD38 cells treated with 0.3 μg/ml tetracycline) were allocated, respectively. In addition, one plate set with reference inhibitors like BAY 41-4109, entecavir, and lamivudine instead of screening compounds were prepared in each experiment. In general, experiments were performed thrice in triplicates. At day 6 HBV DNA from 100 μl filtrated cell culture supernatant (AcroPrep Advance 96 Filter Plate, […] Supor membran, PALL GmbH, Dreieich) was automatically purified on the MagNa Pure LC instrument using the MagNA Pure 96 DNA and Viral NA Small Volume Kit (Roche Diagnostics, Mannheim) according to the instructions of the manufacturer. EC50 values were calculated from relative copy numbers of HBV DNA In brief, 5 μl of the 100 μl eluate containing HBV DNA were subjected to PCR LC480 Probes Master Kit (Roche) together with 1 μM antisense primer […], 0.5 μM sense primer […], 0.3 μM hybprobes […]-FL and LC640-[…]-PH (TIBMolBiol, Berlin) to a final volume of […]. The PCR was performed on the Light Cycler 480 real time system (Roche Diagnostics, Mannheim) using the following protocol: Pre-incubation for 1 min at 95° C., amplification: 40 cycles×(10 sec at 95° C., 50 sec at 60° C., 1 sec at 70° C.), cooling for 10 sec at 40° C. Viral load was quantitated against known standards using HBV plasmid DNA of pCH-9/3091 (Nassal et al., 1990, Cell 63: 1357-1363) and the LightCycler 480 SW 1.5 software (Roche Diagnostics, Mannheim) and EC50 values were calculated using non-linear regression with GraphPad Prism 6 (GraphPad Software Inc., La Jolla, USA).

[2] = biological target: T1, C-terminal truncated core protein (HBV core dimer, BODIPY-FL labelled) (UniProt P03146); assay: Biochemical capsid assembly assay (fluorescence quenching)
T1 construct: fused on or other part: One added cysteine at position 150, labelled with BODIPY-FL maleimide; The C-terminal arginine-rich domain is absent
Method: Biochemical Capsid Assembly Assay
The screening for assembly effector activity was done based on a fluorescence quenching assay published by Zlotnick et al. (2007). The C-terminal truncated core protein containing 149 amino acids of the N-terminal assembly domain fused to a unique cysteine residue at position 150 and was expressed in E. coli using the pET expression system (Merck Chemicals, Darmstadt). Purification of core dimer protein was performed using a sequence of size exclusion chromatography steps. In brief, the cell pellet from 1 L BL21 (DE3) Rosetta2 culture expressing the coding sequence of core protein cloned NdeI/XhoI into expression plasmid pET21b was treated for 1 h on ice with a native lysis buffer (Qproteome Bacterial Protein Prep Kit; Qiagen, Hilden). After a centrifugation step the supernatant was precipitated during 2 h stirring on ice with 0.23 g/ml of solid ammonium sulfate. Following further centrifugation the resulting pellet was resolved in buffer A (100 mM Tris, pH 7.5; 100 mM NaCl; 2 mM DTT) and was subsequently loaded onto a buffer A equilibrated CaptoCore 700 column (GE HealthCare, Frankfurt). The column flow through containing the assembled HBV capsid was dialyzed against buffer N (50 mM NaHCO3 pH 9.6; 5 mM DTT) before urea was added to a final concentration of 3M to dissociate the capsid into core dimers for 1.5 h on ice. The protein solution was then loaded onto a 1 L Sephacryl 5300 column. After elution with buffer N core dimer containing fractions were identified by SDS-PAGE and subsequently pooled and dialyzed against 50 mM HEPES pH 7.5; 5 mM DTT. To improve the assembly capacity of the purified core dimers a second round of assembly and disassembly starting with the addition of 5 M NaCl and including the size exclusion chromatography steps described above was performed. From the last chromatography step core dimer containing fractions were pooled and stored in aliquots at concentrations between 1.5 to 2.0 mg/ml at −80° C.
Immediately before labelling the core protein was reduced by adding freshly prepared DTT in a final concentration of 20 mM. After 40 min incubation on ice storage buffer and DTT was removed using a Sephadex G-25 column (GE HealthCare, Frankfurt) and 50 mM HEPES, pH 7.5. For labelling 1.6 mg/ml core protein was incubated at 4° C. and darkness overnight with BODIPY-FL maleimide (Invitrogen, Karlsruhe) in a final concentration of 1 mM. After labelling the free dye was removed by an additional desalting step using a Sephadex G-25 column. Labelled core dimers were stored in aliquots at 4° C. In the dimeric state the fluorescence signal of the labelled core protein is high and is quenched during the assembly of the core dimers to high molecular capsid structures. The screening assay was performed in black 384 well microtiter plates in a total assay volume of 10 μl using 50 mM HEPES pH 7.5 and 1.0 to 2.0 μM labelled core protein. Each screening compound was added in 8 different concentrations using a 0.5 log-unit serial dilution starting at a final concentration of 100 μM, 31.6 μM or 10 μM, In any case the DMSO concentration over the entire microtiter plate was 0.5%. The assembly reaction was started by the injection of NaCl to a final concentration of […] which induces the assembly process to approximately 25% of the maximal quenched signal. […] after starting the reaction the fluorescence signal was measured using a Clariostar plate reader (BMG Labtech, Ortenberg) with an excitation of 477 nm and an emission of 525 nm. As 100% and 0% assembly control HEPES buffer containing 2.5 M and 0 M NaCl was used. Experiments were performed thrice in triplicates. EC50 values were calculated by non-linear regression analysis using the Graph Pad Prism 6 software (GraphPad Software, La Jolla, USA).

[3] = Cell viability assay (AlamarBlue); conditions: human, HepAD38 cells

T1 sequence (P03146 whole entry, the tested form may be a part): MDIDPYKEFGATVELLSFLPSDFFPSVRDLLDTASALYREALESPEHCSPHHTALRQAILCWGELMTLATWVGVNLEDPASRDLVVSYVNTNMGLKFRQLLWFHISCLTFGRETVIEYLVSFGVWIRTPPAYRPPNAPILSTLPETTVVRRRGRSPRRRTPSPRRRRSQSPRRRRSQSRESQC

| SMILES | EC50 [1] | IC50 [2] | CC50 at 6 days [3] |
| --- | --- | --- | --- |
| O=C(Nc1cccc(Br)c1)C(=O)N1CCN(C(=O)c2cc3ccccc3[nH]2)CC1 [Example 1, N-(3-bromophenyl)-2-[4-(1H-indole-2-carbonyl)piperazin-1-yl]-2-oxoacetamide] | 1 to 10 µM | – | – |
| C[C@@H](O)CNC(=O)C(=O)N1CCN(C(=O)c2cc3ccccc3[nH]2)CC1 [Example 2, (R)-2-(4-(1H-indole-2-carbonyl)piperazin-1-yl)-N-(2-hydroxypropyl)-2-oxoacetamide] | 1 to 10 µM | 5 to 10 µM | > 100 µM |
| O=C(NCCO)C(=O)N1CCN(C(=O)c2cc3ccccc3[nH]2)CC1 [Example 3, 2-(4-(1H-indole-2-carbonyl)piperazin-1-yl)-N-(2-hydroxyethyl)-2-oxoacetamide] | 1 to 10 µM | < 100 µM | > 100 µM |
| O=C(NCC1CCOC1)C(=O)N1CCN(C(=O)c2cc3ccccc3[nH]2)CC1 (stereo not drawn) [Example 4, 2-(4-(1H-indole-2-carbonyl)piperazin-1-yl)-2-oxo-N-((tetrahydrofuran-3-yl)methyl)acetamide] | 1 to 10 µM | < 100 µM | > 100 µM |
| CCCCNC(=O)C(=O)N1CCN(C(=O)c2cc3cccc(Br)c3[nH]2)CC1 [Example 5, 2-[4-(7-bromo-1H-indole-2-carbonyl)piperazin-1-yl]-N-butyl-2-oxoacetamide] | < 1 µM | < 5 µM | > 100 µM |
| CCCCNC(=O)C(=O)N1CCN(C(=O)c2cc3ccccc3[nH]2)CC1 [Example 6, N-butyl-2-[4-(1H-indole-2-carbonyl)piperazin-1-yl]-2-oxoacetamide] | < 1 µM | < 5 µM | > 100 µM |
| O=C(NC1CCCC1)C(=O)N1CCN(C(=O)c2cc3cccc(Br)c3[nH]2)CC1 [Example 7, 2-[4-(7-bromo-1H-indole-2-carbonyl)piperazin-1-yl]-N-cyclopentyl-2-oxoacetamide] | < 1 µM | 5 to 10 µM | > 100 µM |
| CCCCNC(=O)C(=O)N1CCCN(C(=O)c2cc3ccccc3[nH]2)CC1 [Example 8, N-butyl-2-[4-(1H-indole-2-carbonyl)-1,4-diazepan-1-yl]-2-oxoacetamide] | < 1 µM | < 100 µM | > 100 µM |
| CCCCNC(=O)C(=O)N1CCN(C(=O)c2cc3c(F)cc(F)cc3[nH]2)CC1 [Example 9, N-butyl-2-(4-(4,6-difluoro-1H-indole-2-carbonyl)piperazin-1-yl)-2-oxoacetamide] | < 1 µM | < 5 µM | > 100 µM |
| O=C(NCc1ccoc1)C(=O)N1CCN(C(=O)c2cc3ccccc3[nH]2)CC1 [Example 10, 2-(4-(1H-indole-2-carbonyl)piperazin-1-yl)-N-(furan-3-ylmethyl)-2-oxoacetamide] | < 1 µM | < 5 µM | > 100 µM |
| CCCCCCNC(=O)C(=O)N1CCN(C(=O)c2cc3ccccc3[nH]2)CC1 [Example 11, 2-(4-(1H-indole-2-carbonyl)piperazin-1-yl)-N-hexyl-2-oxoacetamide] | 1 to 10 µM | < 5 µM | > 100 µM |
| CC1(CNC(=O)C(=O)N2CCN(C(=O)c3cc4ccccc4[nH]3)CC2)CCOC1 (stereo not drawn) [Example 12, 2-[4-(1H-indole-2-carbonyl)piperazin-1-yl]-N-[(3-methyloxolan-3-yl)methyl]-2-oxoacetamide] | < 1 µM | < 5 µM | > 100 µM |
| COC1(CNC(=O)C(=O)N2CCN(C(=O)c3cc4ccccc4[nH]3)CC2)CC1 [Example 13, 2-(4-(1H-indole-2-carbonyl)piperazin-1-yl)-N-((1-methoxycyclopropyl)methyl)-2-oxoacetamide] | < 1 µM | 5 to 10 µM | > 100 µM |
| CCCCNC(=O)C(=O)N1CCN(C(=O)c2cc3ccc(F)cc3[nH]2)CC1 [Example 23, N-butyl-2-(4-(6-fluoro-1H-indole-2-carbonyl)piperazin-1-yl)-2-oxoacetamide] | < 1 µM | < 5 µM | > 100 µM |
| CCCCNC(=O)C(=O)N1CCN(C(=O)c2cc3cccc(C)c3[nH]2)CC1 [Example 24, N-butyl-2-(4-(7-methyl-1H-indole-2-carbonyl)piperazin-1-yl)-2-oxoacetamide] | < 1 µM | – | > 100 µM |
| CCCCNC(=O)C(=O)N1CCN(C(=O)c2cc3cccc(F)c3[nH]2)CC1 [Example 25, N-butyl-2-(4-(7-fluoro-1H-indole-2-carbonyl)piperazin-1-yl)-2-oxoacetamide] | < 1 µM | < 5 µM | > 100 µM |
| CCCCNC(=O)C(=O)N1CCN(C(=O)c2cc3c(F)cccc3[nH]2)CC1 [Example 26, N-butyl-2-(4-(4-fluoro-1H-indole-2-carbonyl)piperazin-1-yl)-2-oxoacetamide] | < 1 µM | < 5 µM | > 100 µM |
| CC(C)(CCCO)NC(=O)C(=O)N1CCN(C(=O)c2cc3ccccc3[nH]2)CC1 [Example 68, N-(5-hydroxy-2-methylpentan-2-yl)-2-[4-(1H-indole-2-carbonyl)piperazin-1-yl]-2-oxoacetamide] | – | < 5 µM | – |
| CC(C)(CC(F)(F)F)NC(=O)C(=O)N1CCN(C(=O)c2cc3ccccc3[nH]2)CC1 [Example 69, 2-[4-(1H-indole-2-carbonyl)piperazin-1-yl]-2-oxo-N-(4,4,4-trifluoro-2-methylbutan-2-yl)acetamide] | – | < 5 µM | – |
| O=C(NC1CCCCCC1)C(=O)N1CCN(C(=O)c2cc3ccccc3[nH]2)CC1 [Example 70, N-cycloheptyl-2-[4-(1H-indole-2-carbonyl)piperazin-1-yl]-2-oxoacetamide] | – | 5 to 10 µM | – |
